Entries after “also recorded” stand apart in the source; their conditions may differ. No end group written: not given here.
Columns and labels:
TNF-α/TNFR1 = experiment: Competitive ELISA, inhibition of TNF-α binding to TNFR1; set-up: species or system human; settings: hrTNF-α 20 ng/mL, 1 h, 37 °C, n = 3
From the text: We investigated whether H-TL1 has an inhibitory effect on the binding of TNF-α to TNFRs by using ELISA. In this assay, a fixed amount of TNF-α was mixed with different concentrations of H-TL1 and applied to the TNFR-coated ELISA plates. […] SPR analysis was used to further confirm the inhibitory effects of H-TL1 on the binding of TNF-α to TNFR1. As expected, TNF-α was strongly bound with the chip-immobilized TNFR1.
The T7Select1-2b display vector, T7 select primers, blocking reagent, and elution buffer were purchased from Novagen (Merck, Kenilworth, NJ, USA). […] DSS (36–50 kDa) was bought from MP Biomedicals (Solon, OH, USA). MTT, actinomycin D, and LPS were purchased from Sigma-Aldrich (St. Louis, MO, USA).
ELISA plates were coated with sTNFR1 (100 ng/well in 100 μL of 100 mM sodium carbonate, pH 9.6) for 20 h at 4 °C, followed by blocking with phosphate buffered saline (PBS) containing 0.2% Tween-20 (PBST) and 1% BSA for 1 h at 37 °C. Different concentrations of H-TL1 (0–1 μM) were mixed with hrTNF-α (20 ng/mL) in PBS containing 1% BSA, and 100 μL/well was placed in the ELISA plates and incubated for 1 h at 37 °C. After washing with PBST, an HRP-labeled monoclonal antibody against TNF-α was added, followed by incubation at 37 °C for 1 h. The plates were then washed, incubated with o-phenylenediamine, and the absorbance was subsequently measured at 450 nm.

[1] = test system: LPS-induced lung tissue damage, C57BL/6 mice; experiment: Lung histopathology in LPS-induced acute shock; assay type: in vivo, mouse; settings: 12 h after LPS; H&E 200×; n = 8
Description: The LPS-induced acute shock model was established in male C57BL/6 mice (6–8 weeks old) that were randomly allocated to five groups. LPS was administered (15 mg/kg body weight) to induce acute shock. The LPS- or normal saline-treated mice were injected with 100 μL of normal saline with or without LPS intraperitoneally, while the H-TL1 and LPS-treated mice were each administered H-TL1 at three doses of 20, 40, and 80 μg/kg 1, 3, and 5 h after the LPS injection (Figure 5A). The mice were observed every 4 h to evaluate mortality.
To assess lung damage, lung tissues were excised, inflated with 4% neutral formalin, and H&E stained 12 h following LPS injection. The lung parenchyma was examined by light microscopy and graded based on the degree of congestion, edema, inflammation, and hemorrhage. Each characteristic was scored on a scale of 0 to 3 (0, absent; 1, light; 2, moderate; and 3, strong).

For ATSKPSLKC-OH [H-TL1], the “inhibition of the binding of TNF-α with TNFR1” value (TNF-α/TNFR1; H-TL1 1 μM, plate coated with sTNFR1 100 ng/well, PBS + 1% BSA, absorbance 450 nm) was about 60%, the “inhibition of TNF-α/TNFR1 binding, concentration dependence” value (TNF-α/TNFR1; H-TL1 0.1–1000 nM) was “obviously inhibits the binding of TNF-α with TNFR1; also recorded: inhibited the binding of TNF-α with TNFR1 in a concentration-dependent manner” and the “lung parenchymal damage and inflammatory cell infiltration” value [1] was “markedly reduced lung parenchymal damage and inflammatory cell infiltration”.
